Here are results for 2 compounds from ChEMBL document CHEMBL5370593, “Discovery and In Vitro Characterization of SPL028: Deuterated N,N-Dimethyltryptamine” (ACS Med Chem Lett, 2023).

For one series, the target named is MAO-A (Homo sapiens, UniProt P21397). In words: Inhibition of human recombinant MAO-A expressed in insect cells assessed as inhibition of 4-hydroxyquinoline formation at 10 uM using kynuramine as substrate incubated for 75 mins by spectrophotometric analysis relative to control. More on the design: species or system Insect cell. The note with it: probe kynuramine.

Series [1] is described as follows: Metabolic stability in human liver mitochondrial fraction assessed as mean intrinsic clearance measured per million cells incubated upto 60 mins by LC-MS/MS analysis. The series is classed as ADME, mitochondria, Mitochondria. The note with it: 1 h.
The nature of series [2]: Metabolic stability in human hepatocytes assessed as half life measured per million cells incubated upto 60 mins by LC-MS/MS analysis. It counts as ADME, cell-based, Hepatocyte.
Series [3] is described as follows: Metabolic stability in human hepatocytes assessed as intrinsic clearance measured per million cells incubated upto 60 mins by LC-MS/MS analysis. It counts as ADME, cell-based, Hepatocyte. The note with it: read-out: CLH.
The target of series [4] is 5-hydroxytryptamine receptor 5A (Homo sapiens, UniProt P47898). As to the kind of experiment: Displacement of [3H] LSD from human recombinant 5-HT5A receptor expressed in CHO-K1 cells incubated for 60 mins by spectrophotometric analysis. The series is classed as cell-based.
In series [5] the target is T1, Alpha-1B adrenergic receptor (Homo sapiens, UniProt P35368).
T1 sequence (P35368 whole entry): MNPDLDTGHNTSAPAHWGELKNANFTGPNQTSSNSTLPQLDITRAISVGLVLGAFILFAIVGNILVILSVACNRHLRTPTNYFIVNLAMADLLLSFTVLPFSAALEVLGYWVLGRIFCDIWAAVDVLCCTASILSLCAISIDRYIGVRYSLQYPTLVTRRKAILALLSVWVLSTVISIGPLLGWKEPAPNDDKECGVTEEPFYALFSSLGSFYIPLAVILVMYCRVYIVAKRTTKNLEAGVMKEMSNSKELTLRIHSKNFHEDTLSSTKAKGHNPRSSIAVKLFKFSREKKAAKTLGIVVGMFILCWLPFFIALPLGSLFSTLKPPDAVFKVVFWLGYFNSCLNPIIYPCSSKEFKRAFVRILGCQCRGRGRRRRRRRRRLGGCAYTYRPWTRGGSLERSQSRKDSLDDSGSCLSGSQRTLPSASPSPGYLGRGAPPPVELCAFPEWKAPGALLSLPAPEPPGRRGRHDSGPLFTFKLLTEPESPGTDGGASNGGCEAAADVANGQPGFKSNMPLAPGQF
As to the kind of experiment: Displacement of [3H] prazosin from human recombinant adrenergic alpha-1b receptor expressed in […] cells incubated for 60 mins by spectrophotometric analysis. It counts as cell-based.

Series [6] addresses T2, Neuronal acetylcholine receptor; alpha3/beta4 (Homo sapiens, UniProt P30926+P32297). In words: Displacement of [125I]-epibatidine from human recombinant nAChR alpha3beta4 receptor expressed in CHO-K1 cells incubated for 60 mins by spectrophotometric analysis. It counts as cell-based.
The target of series [7] is T3, 5-hydroxytryptamine receptor 6 (Homo sapiens, UniProt P50406). As to the kind of experiment: Displacement of [3H] LSD from human recombinant 5-HT6 receptor expressed in human HeLa cells assessed as inhibition constant incubated for 120 mins by spectrophotometric analysis. It counts as cell-based.
The target of series [8] is T4, 5-hydroxytryptamine receptor 7 (Homo sapiens, UniProt P34969). As to the kind of experiment: Displacement of [3H] LSD from human recombinant 5-HT7 receptor expressed in CHO-K1 cells assessed as inhibition constant incubated for 120 mins by spectrophotometric analysis. The series is classed as cell-based.
Series [9] concerns the target T1, Alpha-1B adrenergic receptor. In words: Displacement of [3H] prazosin from human recombinant adrenergic alpha-1b receptor expressed in […] cells assessed as inhibition constant incubated for 60 mins by spectrophotometric analysis. The series is classed as cell-based.
Series [10] has as its target T5, Alpha-2A adrenergic receptor (Homo sapiens, UniProt P08913).
T5 sequence (P08913 whole entry): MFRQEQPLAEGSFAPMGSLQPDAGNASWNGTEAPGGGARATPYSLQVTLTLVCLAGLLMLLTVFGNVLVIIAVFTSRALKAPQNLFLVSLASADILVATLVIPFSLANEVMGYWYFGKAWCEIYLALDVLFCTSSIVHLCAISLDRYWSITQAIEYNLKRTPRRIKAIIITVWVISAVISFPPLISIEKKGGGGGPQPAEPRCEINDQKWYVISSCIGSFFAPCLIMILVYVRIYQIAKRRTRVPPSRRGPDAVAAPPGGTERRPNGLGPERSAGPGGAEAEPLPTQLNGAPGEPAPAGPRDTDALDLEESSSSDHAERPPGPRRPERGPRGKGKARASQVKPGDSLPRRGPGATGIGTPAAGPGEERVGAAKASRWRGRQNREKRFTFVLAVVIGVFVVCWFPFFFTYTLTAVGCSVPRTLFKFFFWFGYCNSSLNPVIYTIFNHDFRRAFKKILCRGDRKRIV
As to the kind of experiment: Displacement of [3H]-rauwolscine from human recombinant adrenergic alpha-2A receptor expressed in CHO-K1 cells assessed as inhibition constant incubated for 60 mins by spectrophotometric analysis. It counts as cell-based.

For series [11], the target named is T4, 5-hydroxytryptamine receptor 7. In words: Displacement of [3H] LSD from human recombinant 5-HT7 receptor expressed in CHO-K1 cells at 10 uM incubated for 120 mins by spectrophotometric analysis relative to control. It counts as cell-based.
The target in series [12] is Alpha-1D adrenergic receptor (Homo sapiens) (UniProt P25100). In words: Displacement of [3H] prazosin from human recombinant adrenergic alpha-1d receptor expressed in HEK293 cells at 10 uM incubated for 60 mins by spectrophotometric analysis relative to control. The series is classed as cell-based.
Series [13] addresses T2, Neuronal acetylcholine receptor; alpha3/beta4. As to the kind of experiment: Displacement of [125I]-epibatidine from human recombinant nAChR alpha3beta4 receptor expressed in CHO-K1 cells at 10 uM incubated for 60 mins by spectrophotometric analysis relative to control. The series is classed as cell-based.
Series [14] concerns the target 5-hydroxytryptamine receptor 1A (Homo sapiens) (UniProt P08908). As to the kind of experiment: Displacement of [3H] 8-OH-DPAT from human recombinant 5-HT1A receptor expressed in CHO-K1 cells at 10 uM incubated for 60 mins by spectrophotometric analysis relative to control. The series is classed as cell-based.
The target of series [15] is Histamine H1 receptor (Homo sapiens) (UniProt P35367). As to the kind of experiment: Displacement of [3H] pyrilamine from human recombinant histamine H1 receptor expressed in CHO-K1 cells at 10 uM incubated for 180 mins by spectrophotometric analysis relative to control. It counts as cell-based.
Series [16] concerns the target T3, 5-hydroxytryptamine receptor 6. In words: Displacement of [3H] LSD from human recombinant 5-HT6 receptor expressed in human HeLa cells at 10 uM incubated for 120 mins by spectrophotometric analysis relative to control. It counts as cell-based.
Series [17] concerns the target Alpha-2A adrenergic receptor (Homo sapiens) (UniProt P08913). As to the kind of experiment: Displacement of [3H]-rauwolscine from human recombinant adrenergic alpha-2A receptor expressed in CHO-K1 cells at 10 uM incubated for 60 mins by spectrophotometric analysis relative to control. The series is classed as cell-based.
Series [18] deals with Sigma non-opioid intracellular receptor 1 (Homo sapiens) (UniProt Q99720). As to the kind of experiment: Displacement of [3H] pentazocine from human sigma 1 receptor expressed in human Jurkat cells at 10 uM incubated for 120 mins by spectrophotometric analysis relative to control. The series is classed as cell-based. The conditions noted are these: tested as the 2H-labelled form.

Series [19] has the same target. As to the kind of experiment: Displacement of [3H] pentazocine from human sigma 1 receptor expressed in human Jurkat cells at <=10 uM incubated for 120 mins by spectrophotometric analysis. It counts as cell-based.

pIC50, pKi: −log10 of the molar value. The source made the active and inactive calls. No cut-off for these calls is given here.

T4 sequence (P34969 whole entry): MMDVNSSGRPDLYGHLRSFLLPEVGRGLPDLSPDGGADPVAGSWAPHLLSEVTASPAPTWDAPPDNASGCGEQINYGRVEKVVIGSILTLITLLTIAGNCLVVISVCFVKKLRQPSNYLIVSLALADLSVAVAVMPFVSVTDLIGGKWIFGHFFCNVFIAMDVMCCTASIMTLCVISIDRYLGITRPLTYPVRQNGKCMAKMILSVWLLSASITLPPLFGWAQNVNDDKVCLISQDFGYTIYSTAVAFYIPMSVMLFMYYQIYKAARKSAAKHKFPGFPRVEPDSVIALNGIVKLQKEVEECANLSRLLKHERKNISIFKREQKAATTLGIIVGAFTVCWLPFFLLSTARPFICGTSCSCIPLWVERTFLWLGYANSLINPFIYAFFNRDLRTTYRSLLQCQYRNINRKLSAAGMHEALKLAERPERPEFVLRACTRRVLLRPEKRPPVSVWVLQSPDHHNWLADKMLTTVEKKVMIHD
Sequence of Sigma non-opioid intracellular receptor 1 (Homo sapiens) (Q99720 whole entry): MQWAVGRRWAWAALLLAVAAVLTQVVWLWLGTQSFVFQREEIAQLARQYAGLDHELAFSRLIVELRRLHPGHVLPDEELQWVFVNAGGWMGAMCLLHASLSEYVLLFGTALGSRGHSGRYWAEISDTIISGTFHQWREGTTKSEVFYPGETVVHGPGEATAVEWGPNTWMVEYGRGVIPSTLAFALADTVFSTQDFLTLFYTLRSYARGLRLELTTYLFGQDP
T3 sequence (P50406 whole entry): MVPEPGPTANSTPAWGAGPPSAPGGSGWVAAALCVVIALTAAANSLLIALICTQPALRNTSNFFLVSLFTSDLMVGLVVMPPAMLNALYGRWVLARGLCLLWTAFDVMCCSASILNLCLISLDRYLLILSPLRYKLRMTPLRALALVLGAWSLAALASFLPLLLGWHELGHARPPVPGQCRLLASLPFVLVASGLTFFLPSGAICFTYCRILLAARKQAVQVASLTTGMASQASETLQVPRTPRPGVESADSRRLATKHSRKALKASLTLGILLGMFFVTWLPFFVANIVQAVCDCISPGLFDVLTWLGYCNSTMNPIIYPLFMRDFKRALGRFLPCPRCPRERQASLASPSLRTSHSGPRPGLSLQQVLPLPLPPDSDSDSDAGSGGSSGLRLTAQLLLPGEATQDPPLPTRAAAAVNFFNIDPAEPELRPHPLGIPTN
Sequence of Histamine H1 receptor (Homo sapiens) (P35367 whole entry): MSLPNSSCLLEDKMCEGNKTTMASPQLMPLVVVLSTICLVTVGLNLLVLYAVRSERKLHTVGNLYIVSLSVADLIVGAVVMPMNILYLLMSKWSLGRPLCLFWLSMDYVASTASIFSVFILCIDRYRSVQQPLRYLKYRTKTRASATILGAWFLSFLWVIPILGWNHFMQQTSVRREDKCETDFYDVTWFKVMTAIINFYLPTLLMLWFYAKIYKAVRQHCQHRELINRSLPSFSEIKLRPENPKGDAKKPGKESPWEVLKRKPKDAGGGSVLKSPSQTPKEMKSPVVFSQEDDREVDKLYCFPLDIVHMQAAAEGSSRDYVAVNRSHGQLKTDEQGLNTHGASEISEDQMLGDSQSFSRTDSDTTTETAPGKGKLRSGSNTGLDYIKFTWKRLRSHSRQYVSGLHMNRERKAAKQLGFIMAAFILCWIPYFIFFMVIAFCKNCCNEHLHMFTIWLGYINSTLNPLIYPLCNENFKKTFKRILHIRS
Sequence of 5-hydroxytryptamine receptor 5A (P47898 whole entry): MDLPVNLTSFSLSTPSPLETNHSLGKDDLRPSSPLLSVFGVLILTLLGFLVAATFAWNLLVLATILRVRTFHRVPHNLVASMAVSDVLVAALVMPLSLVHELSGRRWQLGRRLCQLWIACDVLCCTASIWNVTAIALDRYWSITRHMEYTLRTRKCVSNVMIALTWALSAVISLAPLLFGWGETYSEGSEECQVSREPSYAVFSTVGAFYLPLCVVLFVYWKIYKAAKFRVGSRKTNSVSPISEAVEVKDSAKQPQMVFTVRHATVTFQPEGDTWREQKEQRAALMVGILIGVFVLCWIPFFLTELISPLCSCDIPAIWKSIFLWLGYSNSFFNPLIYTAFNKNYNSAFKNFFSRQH
Sequence of Alpha-1D adrenergic receptor (Homo sapiens) (P25100 whole entry): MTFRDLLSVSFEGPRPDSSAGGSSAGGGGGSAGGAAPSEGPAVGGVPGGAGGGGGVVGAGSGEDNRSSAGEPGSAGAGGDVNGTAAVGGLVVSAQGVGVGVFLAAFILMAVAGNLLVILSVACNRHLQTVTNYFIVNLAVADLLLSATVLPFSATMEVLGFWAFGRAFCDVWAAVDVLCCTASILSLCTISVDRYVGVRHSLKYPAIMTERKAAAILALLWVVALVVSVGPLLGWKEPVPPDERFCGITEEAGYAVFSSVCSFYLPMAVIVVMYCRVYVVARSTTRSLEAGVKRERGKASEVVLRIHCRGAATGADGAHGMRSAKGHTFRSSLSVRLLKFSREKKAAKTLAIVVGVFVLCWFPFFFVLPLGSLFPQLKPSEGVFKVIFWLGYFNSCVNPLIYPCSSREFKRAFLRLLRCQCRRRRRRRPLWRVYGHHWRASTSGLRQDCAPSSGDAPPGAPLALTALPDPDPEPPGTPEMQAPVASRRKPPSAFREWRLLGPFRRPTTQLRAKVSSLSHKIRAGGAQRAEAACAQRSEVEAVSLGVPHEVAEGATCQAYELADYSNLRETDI
Sequence of 5-hydroxytryptamine receptor 1A (Homo sapiens) (P08908 whole entry): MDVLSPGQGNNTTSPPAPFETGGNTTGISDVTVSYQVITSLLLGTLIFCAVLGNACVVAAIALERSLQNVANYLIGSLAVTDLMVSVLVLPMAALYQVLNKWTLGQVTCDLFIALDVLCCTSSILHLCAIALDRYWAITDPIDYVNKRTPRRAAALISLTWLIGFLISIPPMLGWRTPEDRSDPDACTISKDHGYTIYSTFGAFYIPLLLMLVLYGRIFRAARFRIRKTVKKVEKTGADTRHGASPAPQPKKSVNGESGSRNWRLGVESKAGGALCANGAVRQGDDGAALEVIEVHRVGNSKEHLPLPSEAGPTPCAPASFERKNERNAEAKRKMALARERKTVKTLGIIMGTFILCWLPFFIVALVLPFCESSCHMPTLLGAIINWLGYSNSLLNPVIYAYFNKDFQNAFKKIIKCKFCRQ
Sequence of MAO-A (P21397 whole entry): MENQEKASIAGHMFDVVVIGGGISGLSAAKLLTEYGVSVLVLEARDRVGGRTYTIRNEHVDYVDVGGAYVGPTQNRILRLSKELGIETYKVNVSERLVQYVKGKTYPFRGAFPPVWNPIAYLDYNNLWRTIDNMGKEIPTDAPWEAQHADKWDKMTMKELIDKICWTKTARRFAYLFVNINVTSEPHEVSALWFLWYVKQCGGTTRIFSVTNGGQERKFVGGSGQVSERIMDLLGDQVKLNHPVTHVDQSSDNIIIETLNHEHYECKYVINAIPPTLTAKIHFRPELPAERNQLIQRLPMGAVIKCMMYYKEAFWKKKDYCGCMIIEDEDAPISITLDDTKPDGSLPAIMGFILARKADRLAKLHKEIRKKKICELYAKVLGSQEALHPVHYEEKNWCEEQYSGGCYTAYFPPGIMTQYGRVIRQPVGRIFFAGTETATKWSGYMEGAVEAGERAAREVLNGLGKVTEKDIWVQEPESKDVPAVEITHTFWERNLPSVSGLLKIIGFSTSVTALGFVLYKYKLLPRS
T2 sequence (P30926 whole entry): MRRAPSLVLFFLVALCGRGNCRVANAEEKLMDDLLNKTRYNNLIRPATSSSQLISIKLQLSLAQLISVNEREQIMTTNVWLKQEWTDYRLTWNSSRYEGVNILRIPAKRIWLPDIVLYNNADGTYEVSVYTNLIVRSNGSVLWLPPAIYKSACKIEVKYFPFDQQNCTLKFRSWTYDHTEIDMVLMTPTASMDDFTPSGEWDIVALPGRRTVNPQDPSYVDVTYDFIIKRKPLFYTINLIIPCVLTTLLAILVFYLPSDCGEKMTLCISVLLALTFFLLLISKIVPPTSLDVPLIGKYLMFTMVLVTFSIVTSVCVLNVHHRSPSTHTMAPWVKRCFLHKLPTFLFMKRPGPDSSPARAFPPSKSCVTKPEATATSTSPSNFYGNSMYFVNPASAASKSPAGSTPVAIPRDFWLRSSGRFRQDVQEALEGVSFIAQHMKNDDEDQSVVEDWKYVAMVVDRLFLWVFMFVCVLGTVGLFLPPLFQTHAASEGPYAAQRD
T2 sequence (P32297 whole entry): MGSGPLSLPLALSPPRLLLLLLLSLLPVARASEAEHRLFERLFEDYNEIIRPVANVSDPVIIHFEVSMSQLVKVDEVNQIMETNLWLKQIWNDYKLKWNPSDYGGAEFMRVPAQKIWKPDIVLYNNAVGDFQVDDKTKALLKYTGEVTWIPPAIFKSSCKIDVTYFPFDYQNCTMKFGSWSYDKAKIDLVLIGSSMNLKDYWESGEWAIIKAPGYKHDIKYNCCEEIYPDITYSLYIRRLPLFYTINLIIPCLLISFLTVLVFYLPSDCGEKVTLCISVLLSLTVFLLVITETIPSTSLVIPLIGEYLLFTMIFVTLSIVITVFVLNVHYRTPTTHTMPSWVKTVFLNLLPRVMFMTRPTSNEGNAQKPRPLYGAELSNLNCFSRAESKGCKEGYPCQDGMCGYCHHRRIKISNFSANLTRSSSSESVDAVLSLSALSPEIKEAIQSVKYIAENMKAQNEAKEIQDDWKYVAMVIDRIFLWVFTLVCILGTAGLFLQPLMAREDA

With `O=C(O)/C=C/C(=O)O.[2H]C([2H])(Cc1c[nH]c2ccccc12)N(C)C`, the inhibition at 1.25 h, 10 µM on MAO-A was determined as 84.3%. For the same compound, the CLH in series [1] came out at 16.5 µL/min. For the same compound, in [2], the half-life amounted to 3.72 h. Also, the hepatocyte CLint in series [3] stood at 7.3 µL/min/1e6 cells. Besides, the results for the pIC50 in series [4], in series [5] and in series [6] were 5.48, 6.03 and 5.36, respectively. The pKi in [7] was 6.30; in [8], 7.30; in series [9] it was 6.43; in series [10], 5.82.

On to `CN(C)CCc1c[nH]c2ccccc12.O=C(O)/C=C/C(=O)O`, for which the inhibition was 90.4% in series [11]; 95.5% in [11] (tested as the 2H-labelled form); 54.1% in series [12]; 63.2% in series [12] (tested as the 2H-labelled form); 64.6% in [13]; 63.5% in series [13] (tested as the 2H-labelled form). Moreover, the inhibition in [14] amounted to 96%; in series [14] (tested as the 2H-labelled form), 97.6%; in series [15] it was 88.8%; in series [15] (tested as the 2H-labelled form) it was 91.4%; in series [16], 86.1%; in series [16] (tested as the 2H-labelled form) it was 86.2%. Further, the inhibition in series [17] stood at 67.1%; in series [17] (tested as the 2H-labelled form), 69.1%; in [18] it was 45%. Also, at MAO-A, the inhibition at 1.25 h, 10 µM was 85.3%. Also, the CLH in series [1] was 168 µL/min. Moreover, the half-life in [2] was 3.17 h. Further, the hepatocyte CLint in [3] amounted to 16.6 µL/min/1e6 cells. The pIC50 was 5.48 in [4], 6.17 in series [5] and 5.38 in [6]. The pKi in series [7] is 6.25; in series [8], 7.15; in series [9], 6.59; in series [10], 5.95. In addition, the inhibition entry in series [19] and in series [19] (tested as the 2H-labelled form) was “inactive” in each case.
